{"source": "patent US10278931B2", "about": "“Composition for treatment of inflammatory bowel disease and atopic dermatitis” (INNOPHARMASCREEN INC., priority 2015, dated 2019)", "key": {"HMC-1 cells": {"tested_on": "HMC-1 cells", "experiment": "Cytotoxicity (MTT-assay) in HMC-1 cells", "format": "cell-based, human", "description": "(§1) (1) Cell culture: A human mast cell line (HMC-1) was cultured in an IMDM supplemented with 10% FBS at 37° C. and 5% CO2. Candidate materials were dissolved in DMSO, and then filtered using a 0.22 μm filter. The resulting candidate materials were diluted with DMSO and the HMC-1 cells were treated therewith.\n[…] After culturing, the medium was replaced by a fresh medium, 5 mg/ml of an MTT solution was then added thereto, and the mast cells were incubated at 37° C. for 4 hours. 250 DMSO was added to the mast cells, MTT formazan was extracted therefrom, and absorbance of each well was measured at 540 nm using an ELISA reader."}, "TSLP mRNA": {"tested_on": "TSLP mRNA", "experiment": "TSLP mRNA expression (RT-PCR) in HMC-1 cells", "format": "cell-based, human", "description": "as §1\n(§2) (5) Reverse transcription-polymerase chain reaction (RT-PCR) quantitative real time PCR: Total RNA was isolated from cells and tissues, and cDNA was synthesized using a reverse transcriptase and was then reacted with cytokine primers to be analyzed, followed by PCR and real-time PCR. The RT-PCR products were subjected to electrophoresis using 1.5% agarose gel for analysis."}, "[1]": {"molecular_target": "T1, human recombinant caspase-1 (Homo sapiens, UniProt P29466)", "T1 sequence (P29466 120-404)": "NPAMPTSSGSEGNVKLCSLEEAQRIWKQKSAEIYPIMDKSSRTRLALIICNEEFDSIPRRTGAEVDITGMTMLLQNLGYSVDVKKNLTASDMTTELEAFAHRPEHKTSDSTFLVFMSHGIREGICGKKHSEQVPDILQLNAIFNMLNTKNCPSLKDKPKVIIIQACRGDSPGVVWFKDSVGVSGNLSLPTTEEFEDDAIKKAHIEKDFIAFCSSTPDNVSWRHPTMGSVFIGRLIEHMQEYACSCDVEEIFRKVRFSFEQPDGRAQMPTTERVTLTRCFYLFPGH", "experiment": "Recombinant caspase-1 activity assay (kit)", "format": "biochemical", "settings": "caspase-1 assay kit", "description": "(§3) (4) Caspase-1 assay: Recombinant caspase-1 and a drug were allowed to react, and then activity measurement was performed using a caspase-1 assay kit (R&D Systems Inc., Minneapolis, Minn., USA).\nRecombinant caspase-1 and a drug were allowed to react, and then activity was measured using a caspase-1 assay kit (R&D Systems Inc., Minneapolis, Minn., USA)."}, "inflammatory cytokines": {"tested_on": "inflammatory cytokines", "experiment": "Inflammatory cytokine production and mRNA expression in HMC-1 cells", "format": "cell-based, human", "description": "as §1, §2"}, "[2]": {"tested_on": "balb/c mice with DNCB-induced atopic dermatitis", "experiment": "DNCB-induced atopic dermatitis model", "format": "in vivo", "settings": "for epidermal thickness: DNCB group 87.1±13.0, normal 24.5±10.3; for number of mast cells in skin tissue: applied 3 weeks; for blood IgE level: DNCB group 790.0±151.8", "text": "as §2\nA. Experimental animal: 5-week-old male BALB/c mice obtained from. Daehan Biolink (Eumseong, Chungbuk) were adapted for 2 weeks in a clean animal breeding room (small animal room #2-302) at Hoseo University Safety Evaluation Center, set under environmental conditions: temperature of 22±3° C.; relative humidity of 50±20%; ventilation frequency of 10 to 15 times/hour, illumination for 12 hours; and illuminance of 150 Lux to 300 Lux, and then used in an experiment.\n4 experimental animals were accommodated in each of polycarbonate cages (270×500×200 mm, KYERYONG SCIENCE). Feed (5053-Picolab Rodent 20, PMI Nutrition International) and drinking water (ultraviolet sterilized filtered water) were allowed to ingest freely. All procedures of the experiment were conducted after approved by the Ethics Committee of the Hoseo University Safety Evaluation Center (HTRC-15-19).\n(§4) B. Dermatitis induction: Hairs on the back of each mouse were removed and maintained for 24 hours, and then 150 μl of a 1% 2,4-dinitrochlorobenzene(DNCB) solution (acetone: olive oil=3:1) was applied on the hair-removed site once a week for 3 weeks. After week 3, the DNCB solution was applied on the site twice a week for 3 weeks to induce atopic dermatitis.\n(§5) C. Treatment: Mice were divided into 6 groups, and 0.5% DMSO was applied on animals as a control and 200 μl of each of 0.01 μM, 0.1 μM, and 1 μM test material was applied on animals as experimental groups for 3 weeks. 50 μl of 0.1% dexamethasone dissolved in a crude alcohol was applied on animals as a positive control at intervals of 2 days.\nD. Biopsy: After application of the test material was completed, the dorsal skin of each experimental animal was incised under heart anesthesia, some of them were rapidly frozen using liquid nitrogen and stored at −70° C. before analysis, and the remainder was fixed with 10% neutral buffered formalin for 24 hours. The fixed tissues were prepared into slides through general tissue processing, and then subjected to hematoxylin & eosin (H&E) staining to measure the thickness of the epidermal layer. In addition, toluidine blue staining was performed to observe a quantitative change of mast cells. While the stained tissues were observed by an optical microscope, the thickness of the epidermal layer and the number of mast cells were obtained using an image analyzer (Olympus DP-21).\nE. IgE level measurement: IgE concentration in blood was measured by (SHIBAYAGI, Japan) using serum collected when autopsy was performed. 50 μL of an IgE standard solution and the sample were placed in antibody-attached 96 wells and allowed to react for 2 hours, and then 50 μL of a biotin-conjugated anti-IgE antibody solution was added to each well and allowed to react for 2 hours. Thereafter, the resulting sample was reacted with a HRP-avidin solution for 1 hour and a chromogenic substrate (TBM) reagent for 20 minutes, and the reaction was stopped using a reaction stopper. Absorbance of the sample was measured at 450 nm using ELISA (Molecular devices Emax)."}, "caspase-1": {"molecular_target": "T2, caspase-1 (Mus musculus, UniProt P29452)", "T2 construct": "using the dorsal skin of DNCB-applied balb/c mice; from tissue; host or cells: dorsal skin of BALB/c mice", "T2 sequence (P29452 119-402)": "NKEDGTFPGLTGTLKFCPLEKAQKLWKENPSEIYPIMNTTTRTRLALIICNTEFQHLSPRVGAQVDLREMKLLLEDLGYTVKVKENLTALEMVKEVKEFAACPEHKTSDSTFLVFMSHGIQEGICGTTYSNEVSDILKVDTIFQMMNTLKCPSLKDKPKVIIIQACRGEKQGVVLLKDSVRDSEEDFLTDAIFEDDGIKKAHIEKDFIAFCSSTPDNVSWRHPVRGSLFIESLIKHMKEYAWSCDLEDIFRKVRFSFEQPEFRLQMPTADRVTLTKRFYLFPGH", "experiment": "Caspase-1 assay in dorsal skin of DNCB-applied mice", "format": "in vivo", "settings": "DNCB-applied balb/c mice, concentration-dependent", "description": "as §3, §4, §5"}, "[3]": {"settings": "DNCB-applied balb/c mice skin tissue, RT-PCR"}, "[4]": {"settings": "DNCB-applied balb/c mice, concentration of 0.011 μM (so in the source)"}}, "data": [{"smiles": "Cl.N=C(N)NC(=N)Nc1ccc(Cl)cc1", "note": "[IPS-07001]", "values": [{"measurement": "cytotoxicity (MTT-assay)", "setting": "HMC-1 cells; 10 μM", "value": "exhibited cytotoxicity"}, {"measurement": "cytotoxicity (MTT-assay)", "setting": "HMC-1 cells; up to 1 μM", "value": "no cytotoxicity"}, {"measurement": "TSLP mRNA expression", "setting": "TSLP mRNA", "value": "significantly inhibited"}, {"measurement": "recombinant caspase-1 activity", "setting": "[1]", "value": "significantly inhibited"}, {"measurement": "production and mRNA expression of various inflammatory cytokines", "setting": "inflammatory cytokines", "value": "significantly inhibited"}, {"measurement": "visual changes of skin symptoms", "setting": "[2]; 0.01 μM, topical, 3 weeks", "value": "No significant visual changes"}, {"measurement": "epidermal thickness", "setting": "[2]; 0.01 μM", "value": "70.8±4.3", "unit": "μm"}, {"measurement": "number of mast cells in skin tissue", "setting": "[2]; 0.1 μM, p<0.01", "value": "25.8±3.5"}, {"measurement": "visual changes of skin symptoms", "setting": "[2]; 0.1 μM, topical, 3 weeks", "value": "No significant visual changes"}, {"measurement": "epidermal thickness", "setting": "[2]; 0.1 μM", "value": "74.4±7.1", "unit": "μm"}, {"measurement": "blood IgE level", "setting": "[2]; 0.1 μM, p<0.05", "value": "632.6±138.8"}, {"measurement": "number of mast cells in skin tissue", "setting": "[2]; 1 μM, p<0.01", "value": "23.8±5.1"}, {"measurement": "erythema, excoriation, and lichenification (visual observation)", "setting": "[2]; 1 μM, topical, 3 weeks, compared to DNCB group", "value": "reduced"}, {"measurement": "epidermal thickness", "setting": "[2]; 1 μM", "value": "60.0±8.2", "unit": "μm"}, {"measurement": "blood IgE level", "setting": "[2]; 1 μM, p<0.01", "value": "537.9±132.9"}, {"measurement": "IL-6 mRNA expression in atopic skin lesions", "setting": "[2]; [3]", "value": "regulated"}, {"measurement": "TARC mRNA expression in atopic skin lesions", "setting": "[2]; [3]", "value": "regulated"}, {"measurement": "TNF-a mRNA expression in atopic skin lesions", "setting": "[2]; [3]", "value": "regulated"}, {"measurement": "IL-4 level in dorsal skin", "setting": "[2]; [4]", "value": "significantly regulated"}, {"measurement": "serum IL-4 level", "setting": "[2]; [4]", "value": "significantly regulated"}, {"measurement": "serum IgE level", "setting": "[2]; [4]", "value": "significantly regulated"}, {"measurement": "serum histamine level", "setting": "[2]; [4]", "value": "significantly regulated"}, {"measurement": "caspase-1 activity in dorsal skin", "setting": "caspase-1", "value": "significantly inhibited"}]}]}
